Data on ten compounds can be found in patent US20170197935A1, “INHIBITORS OF DNA GYRASE FOR THE TREATMENT OF BACTERIAL INFECTIONS” (Vitas Pharma Research Private Limited, priority 2012, published 2017).

A word on the inhibition: it is the change of the read-out against control, counted positive when it falls. In general, AUC(0-t) refers to the area under the concentration-time curve up to a stated or last time point. A high value points to more exposure. Usually Cmax stands for the highest concentration seen after dosing. As a reminder, the Tmax is the time from dosing to the highest level. As a reminder, the half-life is the time needed for the level to fall by half in the phase considered. Read a low half-life as rapid decline. The bioavailability is dose-corrected exposure relative to a reference, in per cent. A higher bioavailability goes with good availability.

Series [1] concerns Methicillin resistant Staphylococcus aureus (ATCC 33591). Briefly: MIC by microbroth dilution, MRSA ATCC 33591. In kind it is cell-based. The following applies: Formula II compounds, read-out: Minimum Inhibitory Concentration (MIC) MRSA ATCC 33591. The protocol: (§1) Shown below are the microbiological activities of representative compounds of Formula I of the invention. The compounds were tested by the microbroth dilution method (National committee for Clinical Laboratory Standards, 2011, M07-08) and the Minimum Inhibitory Concentration (MIC) was determined.
(§2) Analysis of microbiological activity of compounds shown below are the microbiological activities of representative compounds of Formula II of the invention. The compounds were tested by the microbroth dilution method as per the reference in Example 1.
On the technique in general: Dilution methods test growth across graded concentrations, often in twofold steps.

For a further series, the system named is E. coli (ATCC 25922). In words: MIC by microbroth dilution, E. coli ATCC 25922. In kind it is cell-based. As to conditions: Escherichia coli, ATCC25922, Formula II compounds, read-out: Minimum Inhibitory Concentration (MIC) E. coli ATCC 25922. The method, then:
as §1, §2

For another series, the system named is E. faecalis ATCC 51299. Briefly: MIC by microbroth dilution, E. faecalis ATCC 51299. In kind it is cell-based. The following applies: Enterococcus faecalis, ATCC51299, Formula II compounds, read-out: Minimum Inhibitory Concentration (MIC) E. faecalis ATCC 51299. The protocol: as §1, §2
The next series relates to Acinetobacter BAA747. In words: MIC by microbroth dilution, Acinetobacter BAA747. In kind it is cell-based. As to conditions: Formula II compounds, read-out: Minimum Inhibitory Concentration (MIC) Acinetobacter BAA747. The method, then: as §1, §2
Another series concerns Pseudomonas ATCC 27853. Briefly: MIC by microbroth dilution, Pseudomonas ATCC 27853. It counts as cell-based. The following applies: ATCC27853, Formula II compounds, read-out: Minimum Inhibitory Concentration (MIC) Pseudomonas ATCC 27853. The protocol:
as §1, §2

Series [2] addresses T1, ciprofloxacin resistant recombinant Gyrase protein (with mutation S83L) (Escherichia coli, UniProt P0AES4+P0AES6, S83L).
T1 construct: purchased Inspiralis
In words: Gyrase supercoiling assay with ciprofloxacin resistant Gyrase (S83L). The following applies: read-out: Target specificity: % inhibition of supercoiling activity. It counts as biochemical. The protocol:
The enzyme is incubated with the substrate (relaxed DNA) in the presence and absence of compounds for 1 hour at 37° C. and the DNA is run on a gel at low voltage for several hours. The amount of supercoiled DNA is quantified using DNA imaging and quantification software (Image Lab). The activity of the enzyme is proportional to the amount of supercoiled form detected.

Series [3] in a line: Single dose pharmacokinetics in male Swiss albino mice. In kind it is in vivo. As to conditions: mouse, in vivo. The protocol: (§3) Compounds were dosed to male Swiss albino mice to determine the pharmacokinetic profiles.
as §3

≈ marks a conversion by molar mass, not a printed value.

In the case of `Cc1ccc(CNC2CCN(CCn3c(=O)cnc4ccc(OC(F)(F)F)cc43)CC2)cc1[N+](=O)[O-]` [VT-03-00114], the MIC in series [1] amounted to 0.06 µg/mL (≈ 0.119 µM); in the series on E. coli (ATCC 25922) it was 2 µg/mL (≈ 3.96 µM); with E. faecalis ATCC 51299, 0.5 µg/mL (≈ 0.989 µM).

On to `O=c1cnc2ccc(F)cc2n1CCN1CCC(NCc2ccc(Cl)c([N+](=O)[O-])c2)CC1` [VT-03-00116], for which the MIC in series [1] was found to be 0.03 µg/mL (≈ 0.0652 µM); in the series on E. coli (ATCC 25922), 0.25 µg/mL (≈ 0.544 µM); in the series on E. faecalis ATCC 51299 it was 0.25 µg/mL (≈ 0.544 µM); in the series with Acinetobacter BAA747, 0.25 µg/mL (≈ 0.544 µM); with Pseudomonas ATCC 27853, 16 µg/mL (≈ 34.8 µM). Besides, the inhibition at 0.1 µM in series [2] came out at 96.9%. In series [2], the inhibition at 1 µM worked out at 94.3%.

Turning to `Cc1ccc(CNC2CCN(CCn3c(=O)cnc4ccc(F)cc43)CC2)cc1C#N` [VT-03-00117], the MIC in series [1] was 0.125 µg/mL (≈ 0.298 µM); in the series with E. coli (ATCC 25922), 0.5 µg/mL (≈ 1.19 µM); in the series with E. faecalis ATCC 51299, 0.25 µg/mL (≈ 0.596 µM); in the series on Acinetobacter BAA747 it was 0.25 µg/mL (≈ 0.596 µM); in the series on Pseudomonas ATCC 27853, 16 µg/mL (≈ 38.1 µM). The inhibition at 0.1 µM in series [2] worked out at 88.2%. For the same compound, the inhibition at 1 µM in series [2] amounted to 97.5%.

`Cc1ccc(CNC2CCN(CCn3c(=O)cnc4ncc(C#N)cc43)CC2)cc1[N+](=O)[O-]` [VT-03-00119]: the MIC was 4 µg/mL (≈ 8.94 µM) in series [1]; 8 µg/mL (≈ 17.9 µM) in the series with E. coli (ATCC 25922); 16 µg/mL (≈ 35.8 µM) in the series with E. faecalis ATCC 51299; 8 µg/mL (≈ 17.9 µM) with Acinetobacter BAA747; above 32 µg/mL with Pseudomonas ATCC 27853.

With `COc1ccc2ncc(=S)n(CCN3CCC(NCc4ccc(C)c(F)c4)CC3)c2c1` [VT-03-00126], the MIC was 0.5 µg/mL (≈ 1.13 µM) in series [1], 2 µg/mL (≈ 4.54 µM) with E. coli (ATCC 25922), 8 µg/mL (≈ 18.2 µM) in the series on Acinetobacter BAA747 and above 32 µg/mL in the series with Pseudomonas ATCC 27853.

For `COc1ccc2ncc(=S)n(CCN3CCC(NCc4ccc(C)c([N+](=O)[O-])c4)CC3)c2c1` [VT-03-00127], the MIC in series [1] is 0.125 µg/mL (≈ 0.267 µM); in the series on E. coli (ATCC 25922) it was 1 µg/mL (≈ 2.14 µM); with E. faecalis ATCC 51299 it was 1 µg/mL (≈ 2.14 µM); with Acinetobacter BAA747 it was 1 µg/mL (≈ 2.14 µM); in the series with Pseudomonas ATCC 27853 it was 8 µg/mL (≈ 17.1 µM). For the same compound, the AUC(0-t) in series [3] (iv, 5 mg/kg) was found to be 527 ng·h/mL; in series [3] (oral, 10 mg/kg), 198 ng·h/mL. For the same compound, the Cmax is 478 ng/mL in series [3] (iv, 5 mg/kg) and 97 ng/mL in series [3] (oral, 10 mg/kg). The Tmax in series [3] (iv, 5 mg/kg) came to 0.16 h; in series [3] (oral, 10 mg/kg) it was 0.5 h. For the same compound, the half-life in series [3] (iv, 5 mg/kg) is 2 h; in series [3] (oral, 10 mg/kg), 2.89 h. For the same compound, in series [3] (oral 10 mg/kg vs i.v. 5 mg/kg), the bioavailability stood at 18.8%. The inhibition at 0.1 µM in series [2] came out at 39%. Further, the inhibition at 1 µM in series [2] stood at 72%.

Turning to `COc1ccc2ncc(=O)n(CCN3CCC(NCc4ccc(Cl)c([N+](=O)[O-])c4)CC3)c2c1` [VT-03-00128], the MIC in series [1] is 0.015 µg/mL (≈ 0.0318 µM); in the series on E. coli (ATCC 25922) it was 0.5 to 1 µg/mL (≈ 1.06 to 2.12 µM); in the series on E. faecalis ATCC 51299 it was 0.25 µg/mL (≈ 0.53 µM); in the series on Acinetobacter BAA747 it was 0.25 µg/mL (≈ 0.53 µM); with Pseudomonas ATCC 27853, 8 µg/mL (≈ 17 µM). Further, the inhibition at 0.1 µM in series [2] stood at 34%. For the same compound, in series [2], the inhibition at 1 µM turned out to be 51%.

On to `Cc1ccc(CNC2CCN(CCn3c(=O)cnc4ccc(Cl)nc43)CC2)cc1C#N` [VT-03-00131], for which the MIC in series [1] was 0.25 µg/mL (≈ 0.572 µM); with E. coli (ATCC 25922), 0.25 to 1 µg/mL (≈ 0.572 to 2.29 µM); in the series with E. faecalis ATCC 51299, 0.25 µg/mL (≈ 0.572 µM); with Acinetobacter BAA747 it was 0.25 µg/mL (≈ 0.572 µM); in the series with Pseudomonas ATCC 27853, 16 µg/mL (≈ 36.6 µM).

Regarding `COc1ccc2ncc(=S)n(CCN3CCC(NCc4ccc(C)c(C#N)c4)CC3)c2c1` [VT-03-00132], the MIC came to 1 µg/mL (≈ 2.23 µM) in series [1]; 2 µg/mL (≈ 4.47 µM) with E. coli (ATCC 25922); 1 µg/mL (≈ 2.23 µM) in the series with E. faecalis ATCC 51299; 2 µg/mL (≈ 4.47 µM) with Acinetobacter BAA747; 32 µg/mL (≈ 71.5 µM) in the series with Pseudomonas ATCC 27853.

Take `COc1ccc2ncc(=O)n(CCN3CC[C@H](NCc4ccc(C)c([N+](=O)[O-])c4)[C@H](F)C3)c2c1` [VT-03-00134]: the MIC in series [1] is 0.015 µg/mL (≈ 0.0319 µM); with E. coli (ATCC 25922) it was 2 µg/mL (≈ 4.26 µM); in the series on E. faecalis ATCC 51299, 0.25 µg/mL (≈ 0.532 µM); in the series on Acinetobacter BAA747, 0.5 µg/mL (≈ 1.06 µM); in the series on Pseudomonas ATCC 27853 it was 32 µg/mL (≈ 68.2 µM).
